# Data: patent publication US20070160684A1, “Methods for increasing cancer cell chemosensitivity” (priority 2005, published 2007)
# Experiments:
# H2AX phosphorylation [1] = experiment: Western analysis of H2AX phosphorylation in U2OS.GK41 cells; format: cell-based; details: 2 μM Dox, 1 hour and 2 hours, cells expressing ATR-kd
# Method: For experiments using U2OS.GK41 cells, cells were pre-treated with 1 μg/ml doxycycline for 48 […] to induce expression of ATR-kd. Non-induced control cells were pre-treated with vehicle only. Induced and non-induced cells were then treated with 2 μM Dox. At 1 hour and 2 hours after Dox treatment, cell lysates were removed and subjected to Western analyses using anti-phospho-H2AX or anti-actin antibodies.
# [2] = system: ATM Ser1981 phosphorylation; experiment: Western analysis of ATM phosphorylation in pEBS7 and YZ5 cells; format: cell-based; details: 2 μM Dox
# Method: ATM-deficient pEBS7 cells and ATM-proficient YZ5 cells were maintained in DMEM and 10% FBS with 100 μg/ml hygromycin at 37° C. with 5% CO2. pEBS7 and YZ5 are stable clones derived from ATM-deficient fibroblasts (AT22IJE-T) with empty vector and Flag-tagged wild-type ATM, respectively (Li 2000). Cells were treated with 2 μM Dox or vehicle only. At various time points after treatment, equal amounts of protein lysates were removed and subjected to Western analyses using monoclonal anti-phospho-ATM antibodies (Ser1981) (Upstate Cell Signaling, Waltham, Mass.).
# [3] = system: HepG2, Hep3B, and CL48 cells; experiment: MTT cell viability assay; format: cell-based; details: increasing concentrations, 72 hours
# Method: MTT assays were conducted as described above to assess the effect of HGMA2 expression on the sensitivity of HepG2, Hep3B, and CL48 cells to Dox or cisplatin. […] To exclude the possibility that HMGA2 increases chemosensitization in general, Taxol-induced cell growth inhibition was measured in HeLa and HeLa/HMGA2 cells. Taxol is a microtubule stabilizing agent (Slichenmyer 1991) commonly used as a chemotherapeutic agent for combating breast and ovarian cancers.
# [4] = system: HS578T, HCC1419, and CHO cells; experiment: MTT cell viability assay; details: Dox 0 to 2.5 μM
# Pa-4/HMGA2 cells = experiment: FACS analysis after caffeine and Dox (G2/M, sub-G1); format: cell-based; details: 4 mM caffeine or 1 μM Dox
# Method: Pa-4 and Pa-4/HMGA2 cells were seeded at 50-80% confluency in 35 mm dishes and serum starved overnight to synchronize cell cycle. […] Following treatment, cells were fixed in 70% ethanol overnight, stained with 20 μg/ml propidium iodide, and subjected to FACS analysis.
# Apoptosis was quantified by assessing sub-G1 cell populations.
# HMGA2/Ku70/Ku80 complex = experiment: Co-immunoprecipitation after Dox treatment; format: cell-based
# [5] = system: Pa-4 and Pa-4/HMGA2 cells; experiment: MTT cell viability assay; format: cell-based; details: Dox 0-7 μM or irinotecan 0-50 μM
# H2AX phosphorylation [6] = experiment: Western analysis of H2AX phosphorylation in HeLa and HeLa/HMGA2 cells; format: cell-based; details: Dox
# Method: (§1) To ascertain whether HMGA2 effects Dox-induced ATM signaling activation, phosphorylation of ATM Ser1981 and H2AX Ser139 was assayed in the presence and absence of Dox (2 μM in ATM assays, 1 μM in H2AX assays). At various timepoints after Dox treatment, cell lysates were removed and subjected to Western analyses using monoclonal anti-phospho-ATM antibodies (Ser1981), polyclonal anti-ATM antibodies (Santa Cruz Biotechnology, Santa Cruz, Calif.), monoclonal anti-phospho-H2AX antibodies ([…]) (Upstate Cell Signaling), or anti-H2AX antibodies. Control Western analyses were performed using monoclonal anti-actin antibodies. […] HeLa and HeLa/HMGA2 cells
# The effect of HMGA2 on ATM and H2AX phosphorylation in HeLa cells was measured using the protocol described above. […] As for H2AX, results were similar to those observed in Pa-4 cells.
# Pa-4 cells = details: 4 mM caffeine or 1 μM Dox
# [7] = system: PUMA and NOXA transcriptional activation; experiment: Quantitative real-time RT-PCR of PUMA and NOXA; format: cell-based; details: 2 μM Dox
# [8] = system: HeLa and HeLa/HMGA2 cells; experiment: MTT cell viability assay; format: cell-based; details: Dox 0-1 μM
# Text: HS578T, HCC1419, and CHO cells
# [9] = system: ATM Ser1981 phosphorylation; experiment: Western analysis of ATM phosphorylation in Pa-4 and Pa-4/HMGA2 cells; format: cell-based; details: 2 μM Dox
# [10] = system: H2AX Ser139 phosphorylation; experiment: Western analysis of H2AX phosphorylation in Pa-4 and Pa-4/HMGA2 cells; format: cell-based; details: 1 μM Dox
# Method: as §1
# (§2) NU7026 (Calbiochem, San Diego, Calif.) was dissolved in DMSO at 5 mM and stored at −20° C. […] Cell lysates were removed and subjected to Western analyses using monoclonal anti-phospho-H2AX (Ser 139) antibodies. Control Western analyses were performed using monoclonal anti-actin antibodies.
# [11] = system: p53 Ser-15 and Chk2 Thr-68 phosphorylation; experiment: Western analysis of p53 and Chk2 phosphorylation in MO59J and MO59K cells; format: cell-based
# Method: To establish the role of DNA-PK in Dox-induced p53 and Chk2 phosphorylation, MO59J (DNA-PKcs-deficient) and MO59K (DNA-PKcs-proficient) cells were treated with Dox, and their p53 and Chk2 phosphorylation profiles were probed.
# [12] = in a subject; cited from earlier work
# topo IIα = experiment: Western analysis of steady-state topo II levels in HS578T cells; format: cell-based; details: 1 μM Dox, various time points
# Method: HS578T cells were treated with 1 μM Dox, and at various time points cell lysates were removed and subjected to Western analyses using monoclonal anti-topo IIα antibody (BD Biosciences, San Jose, Calif.). Control Western analyses were performed using monoclonal anti-actin antibodies.
# H2AX phosphorylation [13] = experiment: Western analysis of H2AX phosphorylation in HS578T and HCC1419 cells; format: cell-based; details: 2 μM Dox
# Method: as §2
# Experiments were repeated using HS578T and HCC1419 cells treated with 2 μM rather than 1 μM Dox.
# [14] = 10 μM Dox for 30 minutes, HeLa/HMGA2 cells
smiles,measurement,setting,value
"COc1cccc2c1C(=O)c1c(O)c3c(c(O)c1C2=O)C[C@@](O)(C(=O)CO)C[C@@H]3O[C@H]1C[C@H](N)[C@H](O)[C@H](C)O1 [Dox, doxorubicin]",induction of H2AX phosphorylation,H2AX phosphorylation [1],delay in Dox-mediated induction of H2AX phosphorylation
same,ATM Ser1981 phosphorylation,[2],detected between 0.5 and 2 hours after Dox treatment
same,"sensitivity, HepG2 and Hep3B versus CL48",[3],greater sensitivity to both Dox and cisplatin than HMGA2-underexpressing CL48 cells
same,"sensitivity to growth inhibition, HS578T versus HCC1419 and CHO",[4]; 72 hours,HS578T cells were substantially more sensitive to Dox-mediated growth inhibition than the other two cell types
same,cell viability,[4]; 72 hours after treatment,decreased cell viability in a dose-dependent manner in all three cell types
same,"apoptosis (sub-G1 cell population), single agent",Pa-4/HMGA2 cells,substantially larger increase in Pa-4/HMGA2 cells
same,"cell cycle distribution / cells in G2/M, single agent",Pa-4/HMGA2 cells; 48 hours,greatly increased the number of cells in G2/M phase
same,DNA-PKcs in the immunocomplexes of Ku80,HMGA2/Ku70/Ku80 complex; [14],enriched the amount of DNA-PKcs detected in the immunocomplexes of Ku80
same,anti-Ku80-immunoprecipitated HMGA2,HMGA2/Ku70/Ku80 complex; [14],decrease in anti-Ku80-immunoprecipitated HMGA2
same,interaction of endogenous HMGA2 with Ku80/Ku70,"HMGA2/Ku70/Ku80 complex; Dox, Hs578T cells",this interaction was disrupted upon Dox-treatment
same,difference in decrease of viability between Pa-4/HMGA2 and Pa-4 cells,[5]; 72 hours,much larger in Pa-4/HMGA2 cells than it was in Pa-4 cells
same,cell viability / growth inhibition,[5]; 72 hours after treatment,decreased cell viability in a dose-dependent manner in both Pa-4 and Pa-4/HMGA2 cells
same,induction of H2AX phosphorylation,H2AX phosphorylation [6],ablation of Dox-mediated induction of phosphorylation
same,"apoptosis (sub-G1 cell population), single agent",Pa-4 cells,increase in apoptosis
same,"cell cycle distribution / cells in G2/M, single agent",Pa-4 cells; 48 hours,greatly increased the number of cells in G2/M phase
same,transcriptional activation of PUMA and NOXA,[7]; CL48 and HepG2 cells,marked transcriptional activation of PUMA and NOXA at 8 hours after treatment
same,transcriptional activation of PUMA and NOXA,[7]; Hep3B cells and HeLa cells,modest induction if any
same,"cell viability, HeLa/HMGA2 versus HeLa",[8],HMGA2 expression enhancing the chemosensitivity of cells to Dox
same,"ATM phosphorylation, Pa-4 versus Pa-4/HMGA2",[9],roughly equal in Pa-4 and Pa-4/HMGA2 cells
same,ATM phosphorylation,[9]; Pa-4 cells,rapid phosphorylation of ATM
same,induction of H2AX phosphorylation,[10]; Pa-4/HMGA2 cells,ablation of Dox-mediated induction of H2AX phosphorylation
same,H2AX phosphorylation,[10]; Pa-4 cells,rapid phosphorylation
same,p53 phosphorylation at Ser-15,"[11]; Dox, MO59J and MO59K cells",robust p53 phosphorylation at Ser-15
same,Chk2 phosphorylation at Thr-68,"[11]; MO59J cells, 2 hours post-Dox treatment",barely detectable
same,maximum cumulative dosage limited by side effects,[12],450 to 550 mg
same,steady-state topo II levels,topo IIα,remained comparable over the time course of Dox treatment
same,H2AX phosphorylation,H2AX phosphorylation [13]; HCC1419 cells,induced H2AX phosphorylation
same,H2AX phosphorylation,H2AX phosphorylation [13]; HS578T cells,no increase in H2AX phosphorylation following Dox treatment
